# Assay results from patent US20230114083A1, “PHOTOACOUSTIC IMAGING AGENT” (National University Corporation Hokkaido University, priority 2021, published 2023).
# Counter-ions that a name gives are not always drawn. Like-named read-outs stand apart in the source and are kept apart here.
# Assay: Measurement of optical absorption spectrum and its pH dependence (ultraviolet visible spectrophotometer)
# Type: physicochemical
# Details: for absorption maxima / shift of maximum absorption wavelength: in DMSO; for absorption maxima / pH dependence of absorption properties: 1 μM; for pH dependence of absorption properties: phosphate buffers of various pH, 30% by volume DMSO; for shift of maximum absorption wavelength: aryl piperazine cyanines
# Procedure: In order to investigate the optical absorption properties of the synthesized ICG derivatives, absorption spectra were measured and their pH dependence was examined using an ultraviolet visible spectrophotometer at a concentration of 1 μM either in dimethyl sulfoxide (DMSO) or in phosphate buffers of various pH with DMSO as a cosolvent (30% by volume of DMSO and 70% by volume of phosphate buffer).
# For each ICG derivative, an absorption spectrum consisted of relative absorbance was obtained by setting the absorbance of the absorption peak near 700 nm in DMSO (absorbance at the maximum absorption wavelength) to 1.
# The optical absorption spectra of the IGC derivative PBA-Cy was measured at various pH values in the same manner as in Example 1.
# The optical absorption properties of the synthesized ICG derivatives (PPA-Cy and SS-PPA-Cy) were investigated in the same manner as in Example 1, and their pH dependence was examined.
# [1] = phosphate buffers of various pH with DMSO as cosolvent, from pH dependence of absorption spectra, read-out: pKa
Molecule,absorption maxima,pH dependence of absorption properties,other results
"CC1(C)C(=CC=C2CCCC(C=CC3=[N+](CCCS(=O)(=O)[O-])c4ccc5ccccc5c4C3(C)C)=C2N2CC[N+](C)(C)CC2)N(CCCS(=O)(=O)[O-])c2ccc3ccccc3c21 [DMP-Cy, 2-[2-[3-[2-[1,3-dihydro-3,3-dimethyl-1-(3-sulfopropyl)-2H-benz[e]indol-2-ylidene]ethylidene]-2-(4-dimethyl-1-piperaziniumyl)-1-cyclohexen-1-yl]ethenyl]-3,3-dimethyl-1-(3-sulfopropyl)-3H-benz[e]indolium, Inner Salt, Sodium Salt]",around 800 nm,–,–
"2-[2-[3-[2-[1,3-Dihydro-3,3-dimethyl-1-(3-sulfopropyl)-2H-benz[e]indol-2-ylidene]ethylidene]-2-(4-acetyl-1-piperazinyl)-1-cyclohexen-1-yl]ethenyl]-3,3-dimethyl-1-(3-sulfopropyl)-3H-benz[e]indolium, Inner Salt, Sodium Salt [AcP-Cy]",around 800 nm,–,–
"CC1(C)C(/C=C/C2=C(N3CCOCC3)C(=C/C=C3/N(CCCS(=O)(=O)[O-])c4ccc5ccccc5c4C3(C)C)/CCC2)=[N+](CCCS(=O)(=O)[O-])c2ccc3ccccc3c21.[Na+] [Mor-Cy, 2-[2-[3-[2-[1,3-dihydro-3,3-dimethyl-1-(3-sulfopropyl)-2H-benz[e]indol-2-ylidene]ethylidene]-2-(4-morpholinyl)-1-cyclohexen-1-yl]ethenyl]-3,3-dimethyl-1-(3-sulfopropyl)-3H-benz[e]indolium, Inner Salt, Sodium Salt]",~700 nm,no change in absorption properties due to the pH,–
"2-[2-[3-[2-[1,3-dihydro-3,3-dimethyl-1-(3-sulfopropyl)-2H-benz[e]indol-2-ylidene]ethylidene]-2-[1-(4-cyanophenyl)-piperazinyl]-1-cyclohexen-1-yl]ethenyl]-3,3-dimethyl-1-(3-sulfopropyl)-3H-benz[e]indolium, Inner Salt, Sodium Salt [Nitrille-PhP-Cy]",–,–,shift of maximum absorption wavelength: the maximum absorption wavelength was shifted to the longer wavelength side
"2-[2-[2-[4-(2-carboxyethyl)piperazinyl]-3-[2-[1,3-dihydro-3,3-dimethyl-1-(3-sulfopropyl)-7-sulfo-2H-benz[e]indol-2-ylidene]ethylidene]cyclohexen-1-yl]ethenyl]-3,3-dimethyl-1-(3-sulfopropyl)-7-sulfo-3H-benz[e]indolium, Inner Salt, Sodium Salt [SS-PPA-Cy]",–,the maximum absorption wavelength shifted to the longer wavelength side as the pH became more acidic,pKa: 6.8
"2-[2-[3-[2-[1,3-dihydro-3,3-dimethyl-1-(3-sulfopropyl)-2H-benz[e]indol-2-ylidene]ethylidene]-2-(4-methyl-1-piperazinyl)-1-cyclohexen-1-yl]ethenyl]-3,3-dimethyl-1-(3-sulfopropyl)-3H-benz[e]indolium, Inner Salt, Sodium Salt [MP-Cy]",~700 nm,the maximum absorption wavelength shifted to the longer wavelength side as the pH became more acidic,–
"CC1(C)C(/C=C/C2=C(N3CCN(CCC(=O)[O-])CC3)C(=C/C=C3/N(CCCS(=O)(=O)[O-])c4ccc5ccccc5c4C3(C)C)/CCC2)=[N+](CCCS(=O)(=O)[O-])c2ccc3ccccc3c21.[Na+].[Na+] [PPA-Cy, 2-[2-[2-[4-(2-carboxyethyl)piperazinyl]-3-[2-[1,3-dihydro-3,3-dimethyl-1-(3-sulfopropyl)-2H-benz[e]indol-2-ylidene]ethylidene]-1-cyclohexenyl]ethenyl]-3,3-dimethyl-1-(3-sulfopropyl)-3H-benz[e]indolium, Inner Salt, Sodium Salt]",–,the maximum absorption wavelength shifted to the longer wavelength side as the pH became more acidic,pKa [1]: 5.7
"CC1(C)C(/C=C/C2=C(N3CCN(Cc4ccc(CC(=O)O)cc4)CC3)C(=C/C=C3/N(CCCS(=O)(=O)[O-])c4ccc5ccccc5c4C3(C)C)/CCC2)=[N+](CCCS(=O)(=O)[O-])c2ccc3ccccc3c21.[Na+] [PBA-Cy, 2-[2-[3-[2-[1,3-dihydro-3,3-dimethyl-1-(3-sulfopropyl)-2H-benz[e]indol-2-ylidene]ethylidene]-2-[1-(4-carboxymethylbenzyl)-piperazinyl]-1-cyclohexen-1-yl]ethenyl]-3,3-dimethyl-1-(3-sulfopropyl)-3H-benz[e]indolium, Inner Salt, Sodium Salt]",–,shifted to the longer wavelength side as the pH became more acidic,"pKa [1]: 4.9; molar absorption coefficient (used to calculate PBA-Cy concentration in conjugate solution): 32,000 M^−1 cm^−1"
"CC1(C)C(=CC=C2CCCC(C=CC3=[N+](CCCS(=O)(=O)[O-])c4ccc5ccccc5c4C3(C)C)=C2N2CCCCC2)N(CCCS(=O)(=O)[O-])c2ccc3ccccc3c21.[Na+] [Piperi-Cy, 2-[2-[3-[2-[1,3-dihydro-3,3-dimethyl-1-(3-sulfopropyl)-2H-benz[e]indol-2-ylidene]ethylidene]-2-(1-piperidinyl)-1-cyclohexen-1-yl]ethenyl]-3,3-dimethyl-1-(3-sulfopropyl)-3H-benz[e]indolium, Inner Salt, Sodium Salt]",~700 nm,–,–
"2-[2-[3-[2-[1,3-dihydro-3,3-dimethyl-1-(3-sulfopropyl)-2H-benz[e]indol-2-ylidene]ethylidene]-2-(4-methylsulfonyl-1-piperazinyl)-1-cyclohexen-1-yl]ethenyl]-3,3-dimethyl-1-(3-sulfopropyl)-3H-benz[e]indolium, Inner Salt, Sodium Salt [MSP-Cy]",around 800 nm,–,–
"2-[2-[3-[2-[1,3-dihydro-3,3-dimethyl-1-(3-sulfopropyl)-2H-benz[e]indol-2-ylidene]ethylidene]-2- [1-(4-nitrophenyl)-piperazinyl]-1-cyclohexen-1-yl]ethenyl]-3,3-dimethyl-1-(3-sulfopropyl)-3H-benz[e]indolium, Inner Salt, Sodium Salt [Nitro-PhP-Cy]",–,–,shift of maximum absorption wavelength: the maximum absorption wavelength was shifted to the longer wavelength side
